Consider one substance from US20110123562A1, “ANTI-CANCER ACTIVE SUBSTANCE FROM ANTRODIA CAMPHORATA, METHOD FOR PREPARING THE SAME AND USE THEREOF” (priority 2009, published 2011).

Common to all, as to type: cell-based
The test system of data set [1] is HepG2 cells. Description: Anti-proliferation of HepG2 cells, MTS assay. How it is done: (§1) HepG2 cells were obtained from American Type Culture Collection, ATCC, Rockville, Md., U.S.A. and were maintained in Williams medium E (WME), containing 10 mM/L HEPES, 5 μg/mL insulin, 2 μg/mL, glucagon, 0.05 μg/mL hydrocortisone, and 5% fetal bovine serum (Gibco Life Technologies, Grand Island, N.Y., USA). Colon cancer cells (CT26, BCRC 60443), prostate cancer cells (LNCaP, BCRC 60088) and breast cancer cells (MDA-MB-231, BCRC 60425) were obtained from the Biosources Collection and Research Center (BCRC) in the Food industry Research and Development Institute (Hsinchu, Taiwan).
HepG2 cells in WME were cultured on a 96-well cell culture plate (2.5×10^4cells per well) and incubate at 37° C. with 5% CO2. After 4 hours incubation, replace the medium with different concentrations of Antrodia camphorata sample extracts. The Antrodia camphorata extracts were dissolved in 1% dimethyl sulfoxide (DMSO) and mixed with WME medium so as to prepare extracts at different concentrations and the final concentration of DMSO was maintained below 1%. Control cultures contained only extraction solvents, and blank wells contained 100 μL growth medium with no cells. After 72 and 96 h of incubation, cell proliferation was determined by MTS assay (MTS-based cell titer 96 non-radioactivity cell proliferation assay, Promega, Madison, Wis., U.S.A.) so as to examine the anti-hepatoma activity. MTS is a colorimetric method utilizing a tetrazolium reagent. Cell proliferation was determined at 72 and 96 h from the MTS absorbance reading at 490 nm for each concentration compared with the control. […] The EC50 of a sample is defined as the median effective dose of a sample (the concentration of the sample which results in 50% of cell viability) after treating the cancer cells for a certain period of time. At least three replications of each sample were tested to confirm cell proliferation and cytotoxicity. The selective effect on cancer cells was expressed as SI (selective index) value. The SI value was determined as the ratio of CC50 versus EC50 for a tested sample.

The test system of data set [2] is HepG2 cells. In words: Cytotoxicity (CC50) on HepG2 cells, MTS assay. The note with it: concentration reducing cell viability to 50% of control in 24 h. The procedure:
as §1
(§2) HepG2 cells in WME were cultured on a 96-well cell culture plate (2.5×10^4cells per well) and incubate at 37° C. with 5% CO2. After 4 hours incubation, replace the medium with different concentrations of Antrodia camphorata sample extracts. […] After 72 and 96 h of incubation, cell proliferation was determined by MTS assay (MTS-based cell titer 96 non-radioactivity cell proliferation assay, Promega, Madison, Wis., U.S.A.) so as to examine the anti-hepatoma activity. […] Cell proliferation was determined at 72 and 96 h from the MTS absorbance reading at 490 nm for each concentration compared with the control. […] The selective effect on cancer cells was expressed as SI (selective index) value. The SI value was determined as the ratio of CC50 versus EC50 for a tested sample.

In data set [3] the test system is colon cancer cells (CT26). Description: Anti-proliferative activity against colon cancer cells. How it is done:
as §1, §2

Data set [4] concerns prostate cancer cells (LNCaP). Description: Anti-proliferative activity against prostate cancer cells. How it is done: as §1, §2
In data set [5] the test system is breast cancer cells (MDA-MB-231). In words: Anti-proliferative activity against breast cancer cells. The note with it: MDA-MB-231 breast cancer cells. How it is done: as §1, §2

Bounds are passed on as bounds.

As for 4-acetylantroquinonol B, the “anti-proliferative activity compared to crude extract” value in the data set on HepG2 cells [1] stood at 50 times. In addition, in the data set with HepG2 cells [1] (72 h treatment, MTS), the “EC50 72 hours” value is 0.1 µg/mL. Further, in the data set on HepG2 cells [1] (96 h treatment, MTS), the “EC50 96 hours” value was 0.08 µg/mL. Further, the half-maximal cytotoxic concentration (CC50) in the data set on HepG2 cells [2] was more than 10 µg/mL. Moreover, the IC50 is 48.12 ± 5.61 µg/mL in data set [3], 16.841 ± 3.41 µg/mL in data set [4] and 0.091 µg/mL in data set [5]. Besides, the cell viability result in data set [3], in data set [4] and in data set [5] was “below 50%” each time.
